Values quoted from earlier work in patent US20220257548A1, “ORAL COMBINATION DRUG FORMULATION COMPRISING A NON-STEROIDAL ANTI-INFLAMMATORY DRUG AND A COMPLEMENTARY LOW DOSE OF TRANEXAMIC ACID FOR THE TREATMENT OF MENSTRUAL PAIN ACCOMPANIED WITH EXCESSIVE MENSTRUAL BLOOD LOSS” (ARSTAT, INC, priority 2011, published 2022).
Where two headings read alike, the source gives them in different places.

How the values were obtained:
[1] = system: menstrual blood loss (MBL) in women
[2] = system: menstrual blood loss (MBL) in women with menorrhagia; details: for mean percent change in MBL: Lysteda clinical study
[3] = 6 g/day

In the case of `O=C(O)Cc1ccccc1Nc1c(Cl)cccc1Cl` [diclofenac sodium], the “reduction in MBL” value ([1]; 50 mg four times daily on Day 1 and three times on the following four days of the menstrual period) is listed as 24%.
In the case of `CC(C)Cc1ccc(C(C)C(=O)O)cc1` (centres unmarked) [ibuprofen], the “reduction in MBL” value ([1]; 200 mg administered three times daily) is listed as 16% and the “reduction in MBL” value ([1]; 400 mg administered four times daily) is listed as 32%.
In the case of `Cc1cccc(Nc2ccccc2C(=O)O)c1C` [mefenamic acid], the “reduction in MBL” value ([1]; 500 mg three times daily during the menstrual period, women clinically diagnosed with menorrhagia (baseline MBL>80 mL)) is given as 30% and the “reduction in MBL” value ([1]; 500 mg three times daily during the menstrual period, women with no clinical diagnosis of menorrhagia (baseline MBL<80 mL)) is given as 19%.
For `NC[C@H]1CC[C@H](C(=O)O)CC1` [tranexamic acid], the “limitations on social, leisure and physical activities” value ([2]; 3900 mg/day regimen) is listed as “significantly reduces”, the “difference versus placebo in reduction of large stains, small and large clots and changes in serum ferritin levels” value ([2]; Lysteda NDA medical review) is listed as “no statistically significant differences” and the “subjects returned to normal MBL after treatment (mean on-treatment MBL of less than 80 mL)” value ([2]; Lysteda NDA medical review) is listed as 44%. For the same compound, the “mean percent change in MBL” value ([2]; oral tranexamic acid 1950 mg/day regimen) was “approximately 25%”, the “mean percent change in MBL” value ([2]; oral tranexamic acid 3900 mg/day dose) was 39% and the “risk of gastrointestinal adverse events” value [3] was “increased”.
